Data reported in article PMC8778984 (Pharmaceutics, 2021).
Entries after “also recorded” stand apart in the source; their conditions may differ. Read-outs that look alike come from different tables or passages of the source.

Experiments:
[1] = biological target: T1, DHFR (dihydrofolate reductase), partially purified from chicken liver (Gallus gallus, UniProt P00378); experiment: Cell-free enzymatic assay for DHFR (NADPH oxidation, absorbance at 340 nm); type: biochemical; settings: for % Inhibition relative to MTX: DHFR inhibitory potency relative to MTX
T1 construct: Fresh chicken liver (20 g) was cut into pieces, homogenized in 0.1 M MnCl2 and centrifuged; from tissue; host or cells: chicken liver
T1 sequence (P00378 1-189): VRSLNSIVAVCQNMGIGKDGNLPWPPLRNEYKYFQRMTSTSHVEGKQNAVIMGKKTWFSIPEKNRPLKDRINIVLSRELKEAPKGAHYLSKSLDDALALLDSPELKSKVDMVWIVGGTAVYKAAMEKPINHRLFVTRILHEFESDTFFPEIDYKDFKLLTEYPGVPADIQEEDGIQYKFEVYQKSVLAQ
Procedure: This was carried out by the procedure of Kaufman and Kemerer with some modifications: Fresh chicken liver (20 g) was cut into pieces, homogenized in 0.1 M MnCl2 and centrifuged. The supernatant was brought to pH 5–6 with HCl, and ZnSO4 was added gradually to obtain a final concentration of 20 mM. The pH was elevated to pH 7.5–8 by the addition of solid NaHCO3. […] The proteins that remained in the supernatant were precipitated with 4.54 M ammonium sulfate. The precipitate was then dissolved in 50 mM Tris-HCl (pH 7.5) containing 0.1 M KCl and dialyzed for two days against the same buffer, and then frozen in aliquots at −80 °C until used.
(§1) The assay was based on DHFR-dependent reduction of dihydrofolate to tetrahydrofolate. In this process, NADPH is oxidized to NADP, and the extent of the oxidation is monitored by the decrease in absorbance at 340 nm. Tubes containing 1.0 mL each of 0.05 M Tris-HCl buffer (pH 7.5) 0.5 M KCl, 0.137 mM NADPH, and 0.187 mM DHF were incubated for 1 h at 25 °C in the absence and the presence of partially purified DHFR (35 µg/mL) and increasing concentrations of MTX or its derivatives. The absorbance at 340 nm was then monitored.
Figure 1 Inhibition of dihydrofolate reductase by MTX and MTX analogues. The indicated concentrations of MTX and its derivatives were analyzed for their potencies to inhibit the reduction of dihydrofolate to tetrahydrofolate by DHFR. In this process, NADPH is oxidized to NADP and the extent of this oxidation is monitored by the decrease in absorbance at 340 nm (experimental section).

glioma cell lines = settings: read-out: average EC50; variety of glioma cell lines, large variation among lines; cited from earlier work
U251 human glioma cells = experiment: Growth inhibition, MTT viability assay, U251 cells; type: cell-based; settings: for antiproliferative potency compared with MTX (in words): MTX-insensitive glioma cell line U251, 48 h MTT; for antiproliferative potency, BSA–S–S–MTX compared with BSA–(CH2)6–MTX (in words): insensitive glioma cell line U251
Procedure: (§2) In this study, we used two glioma cell lines: (i) CNS-1; rat glioma; (ii) U251; human glioma. Cells were a generous gift from Dr. Yael Mardor from the Sheba Medical Center, Israel.
(§3) Cancer cell lines were grown in monoculture in 96-well plates in RPMI (CNS-1 cells) or DMEM containing 10% fetal bovine serum, 2 mM L-glutamine, penicillin (100 units/mL), and streptomycin (0.1 mg/mL) under humidified atmosphere containing 5% CO2. […] Cell viability was measured after 48 h using a standard MTT (3-(4,5-dimethylthiazol-2-yl)-2,5-diphenyltetrazolium bromide) assay, as described before.

CNS-1 rat glioma cells = experiment: Growth inhibition, MTT viability assay, CNS-1 cells; type: cell-based; settings: for inhibition compared with MTX (in words): CNS-1 (Figure 4B), at 10 µM, to a lesser extent at 1 µM; for antiproliferative potency compared with MTX (in words): MTX-sensitive cell line CNS-1, 48 h MTT; for antiproliferative potency, BSA–S–S–MTX compared with BSA–(CH2)6–MTX (in words): sensitive glioma cell line CNS-1
Procedure: as §2, §3

[2] = set-up: method as in printed; settings: ref not given, cited from earlier work
[3] = biological target: T2, DHFR (dihydrofolate reductase) (Gallus gallus, UniProt P00378); experiment: Reactivation of BSA–MTX analogues by DTT, GSH or L-cysteine, read out as DHFR inhibitory potency; type: biochemical, chicken; settings: for Fold Reactivation by DTT: 2 mM DTT (dithiothreitol); for reactivation by glutathione and L-cysteine (in words): GSH or L-cysteine at concentrations of 100 μM or lower; for % Activity Relative to MTX: Table 2, + 2 mM DTT
T2 construct: Fresh chicken liver (20 g) was cut into pieces, homogenized in 0.1 M MnCl2 and centrifuged; from tissue; host or cells: chicken liver
T2 sequence (P00378 1-189): T1 sequence (P00378 1-189)
Procedure: as §1
A solution of BSA–GSSG–MTX (50 μM in 0.1 M HEPES buffer, pH 7.4, 130 mM NaCl) was divided into plastic tubes (1.0 mL/tube) and incubated for 2 h at 25 °C in the absence and the presence of 2 mM DTT and the indicated concentrations of either GSH or L-cysteine. Samples were then analyzed for their DHFR inhibitory potencies and the IC50 values were determined. Results are expressed as percent of maximal reactivation (obtained by preincubation with 2 mM DTT). Each point is the arithmetic mean of n = 4 tubes ± SEM.

[4] = Maleimide–thiol exchange assay (incubation with GSH, dialysis, absorbance at 372 nm); type: physicochemical
Procedure: BSA–S–MAL–(CH2)3–CONH–MTX (0.2 mM) was dissolved in 1.0 mL 0.1 M HEPES, pH 7.3, and transferred to a tube containing 7.5 mg GSH corresponding to […] which are 100 molar excess over the conjugate. The solution was incubated for 7 h at 37 °C, followed by extensive dialysis and lyophilization. Absorbance was read at 372 nm.

cancer cell lines = experiment: Antiproliferative efficacy in the cancer cell lines (unpublished results); type: cell-based
[5] = Table 1, 1 h at 25 °C, 0.137 mM NADPH, 0.187 mM DHF, read-out: IC50
[6] = Table 2, without DTT, read-out: DHFR Inhibitory Potency (IC50)

CN(Cc1cnc2nc(N)nc(N)c2n1)c1ccc(C(=O)NC(CCC(=O)NCCS)C(=O)O)cc1 (centres unmarked) [MTX–cystamine, MTX–CONH–(CH2)2–SH]
IC50 [1, 5]: 340 ± 11 nM | % Inhibition relative to MTX ([1]; Table 1): 16.2%

CN(Cc1cnc2nc(N)nc(N)c2n1)c1ccc(C(=O)NC(CCC(=O)NCCSSCCN)C(=O)O)cc1 (centres unmarked) [MTX–dicystamine, MTX–CONH–(CH2)2–S–S–(CH2)2–NH2]
IC50 [1, 5]: 110 ± 12 nM | % Inhibition relative to MTX ([1]; Table 1): 50%

CN(Cc1cnc2nc(N)nc(N)c2n1)c1ccc(C(=O)N[C@@H](CCC(=O)NCCCCCCN)C(=O)O)cc1 [MTX–hexylamine, MTX–CONH–(CH2)6–NH2]
IC50 [1, 5]: 80 ± 4 nM | % Inhibition relative to MTX ([1]; Table 1): 69% | % of the DHFR inhibitory potency of MTX ([1]; running text and scheme legend): 69%

CN(Cc1cnc2nc(N)nc(N)c2n1)c1ccc(C(=O)N[C@@H](CCC(=O)O)C(=O)O)cc1 [Methotrexate, reference compound]
EC50 (glioma cell lines): 2400 nM | EC50 (U251 human glioma cells; Homo sapiens, U-251, U251, 48 h, MTT, read-out: EC50 (concentration needed to obtain 50% of viable cells relative to untreated cells)): ~10000 nM | Emax (U251 human glioma cells; Homo sapiens, U-251, U251, at ~10 µM, within 48 h, read-out: maximum effect): 49% | viability in comparison to nontreated cells (CNS-1 rat glioma cells; CNS-1, at maximal effect, 48 h): 36% | EC50 (CNS-1 rat glioma cells; Rattus norvegicus, Glioma cell, CNS-1, 48 h, MTT, read-out: EC50 (concentration needed to obtain 50% of viable cells relative to untreated cells)): ~70 nM | Emax (CNS-1 rat glioma cells; Rattus norvegicus, Glioma cell, CNS-1, within 48 h, read-out: maximal effect): 64% | pKa ([2]; α-carboxylate): ~ 2.1 | pKa ([2]; γ-carboxylate): ~ 4.1

BSA–S–MAL–(CH2)3–CONH–(CH2)2–S–S–(CH2)2–NH^γCO–MTX [BSA–S–S–MTX]
antiproliferative potency compared with MTX (in words) (U251 human glioma cells): significantly more potent | antiproliferative potency, BSA–S–S–MTX compared with BSA–(CH2)6–MTX (in words) (U251 human glioma cells): slightly less potent than BSA–(CH2)6–MTX; also recorded: essentially equipotent | Fold Reactivation by DTT [3]: 7.05 fold | reactivation by GSH (in words) ([3]; GSH at a concentration of 1 mM or higher): reactivated | reactivation by glutathione and L-cysteine (in words) [3]: do not reactivate | % Activity Relative to MTX [3]: 14.1% | inhibition compared with MTX (in words) (CNS-1 rat glioma cells): significantly more inhibitory than MTX | antiproliferative potency compared with MTX (in words) (CNS-1 rat glioma cells): less potent than MTX | antiproliferative potency, BSA–S–S–MTX compared with BSA–(CH2)6–MTX (in words) (CNS-1 rat glioma cells): slightly less potent than BSA–(CH2)6–MTX; also recorded: essentially equipotent | % Activity Relative to MTX ([1]; Table 2, without DTT): 2.0% | IC50 [1, 6]: 2750 ± 200 nM

BSA–S–MAL–(CH2)3–CONH–(CH2)6–NH^γCO–MTX [BSA–(CH2)6–MTX]
antiproliferative potency compared with MTX (in words) (U251 human glioma cells): significantly more potent | antiproliferative potency, BSA–S–S–MTX compared with BSA–(CH2)6–MTX (in words) (U251 human glioma cells): essentially equipotent | maleimide–thiol exchange (in words) ([4]; 100-fold molar excess of GSH, 7 h, pH 7.3, 37 °C, listed as BSA–S–MAL–(CH2)3–CONH–MTX): did not undergo significant maleimide–thiol exchange; also recorded: such exchange does not occur | Absorbance at 372 nm per mg Protein ([4]; Control (no GSH)): 0.479 ± 0.03 | Absorbance at 372 nm per mg Protein ([4]; GSH, 100 molar excess, 7 h, 37 °C, pH 7.3, then dialysis): 0.487 ± 0.03 | cleavage of the spacer peptide bond (in words) ([4]; neutral pH): not cleaved | inhibition compared with MTX (in words) (CNS-1 rat glioma cells): significantly more inhibitory than MTX | antiproliferative potency compared with MTX (in words) (CNS-1 rat glioma cells): less potent than MTX | antiproliferative potency, BSA–S–S–MTX compared with BSA–(CH2)6–MTX (in words) (CNS-1 rat glioma cells): essentially equipotent | % Activity Relative to MTX ([1]; Table 2, without DTT): 7.0% | IC50 [1, 6]: 790 ± 30 nM

BSA–S–MAL–(CH2)3–CO–NH–GSSG–NH^γCO–MTX [BSA–GSSG–MTX]
Fold Reactivation by DTT [3]: 5.16 fold | reactivation by glutathione and L-cysteine (in words) [3]: do not reactivate | % Activity Relative to MTX [3]: 16.2% | reactivation of DHFR inhibitory potency by GSH and cysteine (in words) ([3]; cell-free state): highly effective in reactivating | antiproliferative efficacy (in words) (cancer cell lines): low antiproliferative efficacy | % Activity Relative to MTX ([1]; Table 2, without DTT): 3.14% | IC50 [1, 6]: 1750 ± 120 nM
